Measured values as given in patent publication US20070128217A1 (priority 2003, published 2007).

Legend:
[1] = tested on: antibodies in sera from SARS patients (sera 1a, 1b, 2, 6, 37, 62, London, SARS-yellow, SARS-green); format: binding, human; parameters: Binding of serum 6 to linear peptides of protein X1 of SARS-CoV Urbani / Binding of serum 37 to linear peptides of protein X1 of SARS-CoV Urbani / Binding of serum 6 to looped/cyclic peptide (PEPSCAN-ELISA) / Binding of serum 37 to looped/cyclic peptide (PEPSCAN-ELISA) / Binding of serum 37 to looped/cyclic peptides of protein X1 of SARS-CoV Urbani / Binding of serum 6 to linear peptides of protein X2 / Binding of serum 37 to linear peptides of protein X2 / Binding of serum 37 to looped/cyclic peptides of protein X2 of SARS-CoV Urbani / Binding of serum 6 to linear peptides of protein M of SARS-CoV Urbani / Binding of serum 37 to linear peptides of protein M of SARS-CoV Urbani / Binding of serum 6 to looped/cyclic peptides of protein M of SARS-CoV Urbani / Binding of serum 37 to looped/cyclic peptides of protein M of SARS-CoV Urbani / Binding of serum 6 to linear peptides of protein X3 of SARS-CoV Urbani / Binding of serum 37 to linear peptides of protein X3 of SARS-CoV Urbani / Binding of serum 37 to looped/cyclic peptides of protein X3 of SARS-CoV Urbani / Binding of serum 6 to linear peptides of protein X4 of SARS-CoV Urbani / Binding of serum 37 to linear peptides of protein X4 of SARS-CoV Urbani / Binding of serum 37 to looped/cyclic peptides of protein X4 of SARS-CoV Urbani / Binding of serum 6 to linear peptides of protein X5 of SARS-CoV Urbani / Binding of serum 37 to linear peptides of protein X5 of SARS-CoV Urbani / Binding of serum 37 to looped/cyclic peptides of protein X5 of SARS-CoV Urbani / Binding of serum 6 to linear peptides of protein N of SARS-CoV Urbani / Binding of serum 37 to linear peptides of protein N of SARS-CoV Urbani / Binding of serum 6 to linear peptide (PEPSCAN-ELISA) / Binding of serum 1a to looped/cyclic peptides of protein N of SARS-CoV Urbani / Binding of serum 1b to looped/cyclic peptides of protein N of SARS-CoV Urbani / Binding of serum 2 to looped/cyclic peptides of protein N of SARS-CoV Urbani / Binding of serum 6 to looped/cyclic peptides of protein N of SARS-CoV Urbani / Binding of serum 37 to looped/cyclic peptides of protein N of SARS-CoV Urbani / Binding of serum 62 to looped/cyclic peptides of protein N of SARS-CoV Urbani / Binding of serum London to looped/cyclic peptides of protein N of SARS-CoV Urbani / Binding of serum SARS-green to looped/cyclic peptides of protein N of SARS-CoV Urbani: unit not given here
[2] = tested on: control sera (pooled serum of ten healthy LUMC hospital workers; commercial negative donor pooled serum from the Dutch bloodbank); format: binding, human; parameters: Binding of Control serum LUMC to linear peptides / Binding of Control serum Blood-bank to linear peptides / Binding of Control serum LUMC to looped peptides / Binding of Control Serum Blood-Bank to Looped peptides / Binding of Control serum LUMC to linear peptides of the protein M of SARS-CoV Urbani / Binding of Control serum Blood-bank to linear peptides of the protein M of SARS-CoV Urbani / Binding of Control serum LUMC to looped peptides of the protein M of SARS-CoV Urbani / Binding of Control Serum Blood-Bank to Looped peptides of the protein M of SARS-CoV Urbani: unit not given here
[3] = tested on: rabbit serum obtained by immunizing a rabbit with the SARS-CoV strain Frankfurt 1; format: binding; parameters: Binding of a rabbit serum to linear peptides / Binding of a rabbit serum to looped peptides / Rabbit serum linear peptides / Rabbit serum looped peptides / Binding of a rabbit serum to linear peptides of protein N of SARS-CoV Urbani (Rabbit serum linear peptides) / Binding of a rabbit serum to looped/cyclic peptides of protein N of SARS-CoV Urbani (Rabbit serum looped peptides): unit not given here

ITVSQIQLSLLKVTA
0.7: Binding of serum SARS-yellow to linear peptides of protein X2 [1] | Binding of Control serum LUMC to looped peptides [2] | Binding of a rabbit serum to linear peptides [3]
0.3: Binding of serum SARS-green to looped/cyclic peptides of protein X2 of SARS-CoV Urbani [1]
0.5: Binding of serum 1a to looped/cyclic peptides of protein X2 of SARS-CoV Urbani [1] | Binding of serum 1b to linear peptides of protein X2 [1] | Binding of serum 1b to looped/cyclic peptides of protein X2 of SARS-CoV Urbani [1] | Binding of serum 6 to linear peptides of protein X2 [1] | Binding of serum 37 to looped/cyclic peptides of protein X2 of SARS-CoV Urbani [1] | Binding of serum 62 to looped/cyclic peptides of protein X2 of SARS-CoV Urbani [1] | Binding of Control serum Blood-bank to linear peptides [2]
0.1: Binding of serum SARS-green to linear peptides of protein X2 [1]
1.4: Binding of serum 6 to looped/cyclic peptides of protein X2 of SARS-CoV Urbani [1] | Binding of serum London to looped/cyclic peptides of protein X2 of SARS-CoV Urbani [1]
0.6: Binding of serum 1a to linear peptides of protein X2 [1] | Binding of serum 37 to linear peptides of protein X2 [1] | Binding of serum SARS-yellow to looped/cyclic peptides of protein X2 of SARS-CoV Urbani [1] | Binding of Control Serum Blood-Bank to Looped peptides [2] | Binding of Control serum LUMC to linear peptides [2]
0.4: Binding of serum 2 to linear peptides of protein X2 [1] | Binding of serum 2 to looped/cyclic peptides of protein X2 of SARS-CoV Urbani [1] | Binding of serum 62 to linear peptides of protein X2 [1] | Binding of serum London to linear peptides of protein X2 [1] | Binding of a rabbit serum to looped peptides [3]

IVAALVFLILCFTIK
0.8: Binding of Control Serum Blood-Bank to Looped peptides [2]
0.4: Binding of serum 1b to looped/cyclic peptides of protein X4 of SARS-CoV Urbani [1] | Binding of serum 2 to linear peptides of protein X4 of SARS-CoV Urbani [1] | Rabbit serum linear peptides [3]
0.5: Binding of serum 6 to linear peptides of protein X4 of SARS-CoV Urbani [1] | Binding of serum SARS-green to linear peptides of protein X4 of SARS-CoV Urbani [1] | Binding of serum SARS-green to looped/cyclic peptides of protein X4 of SARS-CoV Urbani [1] | Binding of Control serum LUMC to linear peptides [2]
0.6: Binding of serum 1a to linear peptides of protein X4 of SARS-CoV Urbani [1] | Binding of serum 1b to linear peptides of protein X4 of SARS-CoV Urbani [1] | Binding of serum 2 to looped/cyclic peptides of protein X4 of SARS-CoV Urbani [1] | Binding of serum SARS-yellow to linear peptides of protein X4 of SARS-CoV Urbani [1] | Binding of Control serum Blood-bank to linear peptides [2] | Rabbit serum looped peptides [3]
1.4: Binding of serum 6 to looped/cyclic peptides of protein X4 of SARS-CoV Urbani [1]
0.7: Binding of serum 1a to looped/cyclic peptides of protein X4 of SARS-CoV Urbani [1] | Binding of serum 37 to linear peptides of protein X4 of SARS-CoV Urbani [1] | Binding of serum 37 to looped/cyclic peptides of protein X4 of SARS-CoV Urbani [1] | Binding of serum 62 to linear peptides of protein X4 of SARS-CoV Urbani [1] | Binding of serum 62 to looped/cyclic peptides of protein X4 of SARS-CoV Urbani [1] | Binding of serum London to linear peptides of protein X4 of SARS-CoV Urbani [1] | Binding of serum SARS-yellow to looped/cyclic peptides of protein X4 of SARS-CoV Urbani [1] | Binding of Control serum LUMC to looped peptides [2]
3.0: Binding of serum London to looped/cyclic peptides of protein X4 of SARS-CoV Urbani [1]

IVGLMWLSYFVASFR
0.4: Binding of serum 1b to linear peptides of protein M of SARS-CoV Urbani [1]
0.7: Binding of serum 1a to looped/cyclic peptides of protein M of SARS-CoV Urbani [1] | Binding of serum 6 to looped/cyclic peptides of protein M of SARS-CoV Urbani [1] | Binding of serum 37 to looped/cyclic peptides of protein M of SARS-CoV Urbani [1] | Binding of serum 62 to linear peptides of protein M of SARS-CoV Urbani [1] | Binding of serum 62 to looped/cyclic peptides of protein M of SARS-CoV Urbani [1] | Binding of Control Serum Blood-Bank to Looped peptides of the protein M of SARS-CoV Urbani [2]
0.5: Binding of serum 1b to looped/cyclic peptides of protein M of SARS-CoV Urbani [1] | Binding of serum 2 to linear peptides of protein M of SARS-CoV Urbani [1] | Binding of serum 37 to linear peptides of protein M of SARS-CoV Urbani [1] | Binding of Control serum Blood-bank to linear peptides of the protein M of SARS-CoV Urbani [2] | Rabbit serum looped peptides [3]
0.1: Binding of serum SARS-green to looped/cyclic peptides of protein M of SARS-CoV Urbani [1] | Binding of serum SARS-yellow to linear peptides of protein M of SARS-CoV Urbani [1]
0.6: Binding of serum 1a to linear peptides of protein M of SARS-CoV Urbani [1] | Binding of serum SARS-yellow to looped/cyclic peptides of protein M of SARS-CoV Urbani [1] | Binding of Control serum LUMC to looped peptides of the protein M of SARS-CoV Urbani [2]
0.3: Binding of serum 6 to linear peptides of protein M of SARS-CoV Urbani [1] | Binding of serum London to linear peptides of protein M of SARS-CoV Urbani [1] | Rabbit serum linear peptides [3]
1.0: Binding of serum 2 to looped/cyclic peptides of protein M of SARS-CoV Urbani [1]
0.2: Binding of serum London to looped/cyclic peptides of protein M of SARS-CoV Urbani [1] | Binding of serum SARS-green to linear peptides of protein M of SARS-CoV Urbani [1] | Binding of Control serum LUMC to linear peptides of the protein M of SARS-CoV Urbani [2]

IWNLDVIISSIVRQL
0.3: Binding of serum 1b to linear peptides of protein X3 of SARS-CoV Urbani [1] | Binding of serum SARS-green to looped/cyclic peptides of protein X3 of SARS-CoV Urbani [1]
0.7: Binding of serum 1a to linear peptides of protein X3 of SARS-CoV Urbani [1] | Binding of Control Serum Blood-Bank to Looped peptides of the protein X3 of SARS-CoV Urbani [2] | Binding of Control serum LUMC to looped peptides of the protein X3 of SARS-CoV Urbani [2]
0.2: Binding of serum London to looped/cyclic peptides of protein X3 of SARS-CoV Urbani [1] | Binding of serum SARS-yellow to linear peptides of protein X3 of SARS-CoV Urbani [1] | Rabbit serum linear peptides [3]
0.4: Binding of serum 1b to looped/cyclic peptides of protein X3 of SARS-CoV Urbani [1] | Binding of serum 62 to looped/cyclic peptides of protein X3 of SARS-CoV Urbani [1] | Binding of serum SARS-green to linear peptides of protein X3 of SARS-CoV Urbani [1] | Rabbit serum looped peptides [3]
0.6: Binding of serum 6 to looped/cyclic peptides of protein X3 of SARS-CoV Urbani [1] | Binding of serum 37 to linear peptides of protein X3 of SARS-CoV Urbani [1] | Binding of serum 62 to linear peptides of protein X3 of SARS-CoV Urbani [1] | Binding of serum London to linear peptides of protein X3 of SARS-CoV Urbani [1] | Binding of serum SARS-yellow to looped/cyclic peptides of protein X3 of SARS-CoV Urbani [1] | Binding of Control serum Blood-bank to linear peptides of the protein X3 of SARS-CoV Urbani [2]
0.5: Binding of serum 1a to looped/cyclic peptides of protein X3 of SARS-CoV Urbani [1] | Binding of serum 2 to linear peptides of protein X3 of SARS-CoV Urbani [1] | Binding of serum 2 to looped/cyclic peptides of protein X3 of SARS-CoV Urbani [1] | Binding of serum 6 to linear peptides of protein X3 of SARS-CoV Urbani [1] | Binding of serum 37 to looped/cyclic peptides of protein X3 of SARS-CoV Urbani [1] | Binding of Control serum LUMC to linear peptides of the protein X3 of SARS-CoV Urbani [2]

IYSHLLLVAAGMEAQ
0.5: Binding of serum 1a to looped/cyclic peptide (PEPSCAN-ELISA) [1] | Binding of serum 1b to linear peptides of protein X1 of SARS-CoV Urbani [1] | Binding of serum 2 to linear peptides of protein X1 of SARS-CoV Urbani [1] | Binding of serum 37 to looped/cyclic peptide (PEPSCAN-ELISA) [1] | Binding of serum 62 to looped/cyclic peptide (PEPSCAN-ELISA) [1] | Binding of Control serum Blood-bank to linear peptides [2] | Binding of Control serum LUMC to linear peptides [2] | Binding of Control serum LUMC to looped peptides [2]
0.1: Binding of a rabbit serum to linear peptides [3]
0.4: Binding of serum 1b to looped/cyclic peptide (PEPSCAN-ELISA) [1] | Binding of serum 6 to linear peptides of protein X1 of SARS-CoV Urbani [1] | Binding of Control Serum Blood-Bank to Looped peptides [2] | Binding of a rabbit serum to looped peptides [3]
0.3: Binding of serum 2 to looped/cyclic peptide (PEPSCAN-ELISA) [1] | Binding of serum 6 to looped/cyclic peptide (PEPSCAN-ELISA) [1] | Binding of serum London to linear peptides of protein X1 of SARS-CoV Urbani [1] | Binding of serum SARS-yellow to linear peptides of protein X1 of SARS-CoV Urbani [1]
0.2: Binding of serum London to looped/cyclic peptide (PEPSCAN-ELISA) [1] | Binding of serum SARS-green to linear peptides of protein X1 of SARS-CoV Urbani [1] | Binding of serum SARS-green to looped/cyclic peptide (PEPSCAN-ELISA) [1] | Binding of serum SARS-yellow to looped/cyclic peptide (PEPSCAN-ELISA) [1]
0.6: Binding of serum 1a to linear peptides of protein X1 of SARS-CoV Urbani [1] | Binding of serum 37 to linear peptides of protein X1 of SARS-CoV Urbani [1] | Binding of serum 62 to linear peptides of protein X1 of SARS-CoV Urbani [1]
